Patent US8895761B2, “4-phenylpyrane-3,5-diones, 4-phenylthiopyrane-3,5-diones and 2-phenylcyclohexane-1,3,5-triones as herbicides” (Syngenta Limited, priority 2007, dated 2014)

How the values were obtained:
Format in all cases: in vivo
Setaria faberi (SETFA) [1] = assay: Pre-emergence herbicidal glasshouse test, Setaria faberi; settings: Setaria faberi, 312 h, rate 250 g/ha, evaluated after 13 days, scale 100 = total damage to plant, 0 = no damage
Protocol: (§1) Seeds of a variety of test species were sown in standard soil in pots. After cultivation for one day (pre-emergence) or after 8 days cultivation (post-emergence) under controlled conditions in a glasshouse (at 24/16° C., day/night; 14 hours light; 65% humidity), the plants were sprayed with an aqueous spray solution derived from the formulation of the technical active ingredient in acetone/water (50:50) solution containing 0.5% Tween 20 (polyoxyethelyene sorbitan monolaurate, CAS RN 9005-64-5). The test plants were then grown in a glasshouse under controlled conditions in a glasshouse (at 24/16° C., day/night; 14 hours light; 65% humidity) and watered twice daily. After 13 days for pre and post-emergence, the test was evaluated ([…] to plant; 0=no damage to plant).
(§2) Setaria faberi (SETFA), Lolium perenne (LOLPE), Alopecurus myosuroides (ALOMY), Echinochloa crus-galli (ECHCG) and Avena fatua (AVEFA).

[2] = test system: Alopecurus myosuroides (ALOMY); assay: Pre-emergence herbicidal glasshouse test, Alopecurus myosuroides; settings: Alopecurus myosuroides, 312 h, rate 250 g/ha, evaluated after 13 days, scale 100 = total damage to plant, 0 = no damage
How it was run: (§3)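 Visual damage scores (0 = undamaged, top = plant totally killed) were taken 13 days after spraying. Treatment was given one day after sowing or at day 8 of cultivation, under 24/16° C. glasshouse conditions.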

[3] = test system: Echinochloa crus-galli (ECHCG); assay: Pre-emergence herbicidal glasshouse test, Echinochloa crus-galli; settings: Echinochloa crus-galli, 312 h, rate 250 g/ha, evaluated after 13 days, scale 100 = total damage to plant, 0 = no damage
How it was run: as §3

[4] = test system: Echinochloa crus-galli (ECHCG); assay: Post-emergence herbicidal glasshouse test, Echinochloa crus-galli; settings: Echinochloa crus-galli, 312 h, rate 250 g/ha, evaluated after 13 days, scale 100 = total damage to plant, 0 = no damage
How it was run: as §3

Avena fatua (AVEFA) [5] = assay: Pre-emergence herbicidal glasshouse test, Avena fatua; settings: Avena fatua, 312 h, rate 250 g/ha, evaluated after 13 days, scale 100 = total damage to plant, 0 = no damage
How it was run: as §3

Setaria faberi (SETFA) [6] = assay: Post-emergence herbicidal glasshouse test, Setaria faberi; settings: Setaria faberi, 312 h, rate 250 g/ha, evaluated after 13 days, scale 100 = total damage to plant, 0 = no damage
Protocol: as §1, §2

Avena fatua (AVEFA) [7] = assay: Post-emergence herbicidal glasshouse test, Avena fatua; settings: Avena fatua, 312 h, rate 250 g/ha, evaluated after 13 days, scale 100 = total damage to plant, 0 = no damage
How it was run: as §3

[8] = test system: Alopecurus myosuroides (ALOMY); assay: Post-emergence herbicidal glasshouse test, Alopecurus myosuroides; settings: Alopecurus myosuroides, 312 h, rate 250 g/ha, evaluated after 13 days, scale 100 = total damage to plant, 0 = no damage
How it was run: as §3

## Cc1cc(-c2ccccc2)cc(C)c1C1=C(O)C(C)(C)OC(C)(C)C1=O [Compound A-1]
Setaria faberi (SETFA) [1]
  pest or weed control at 250 g/ha: 90%
[2]
  pest or weed control at 250 g/ha: 30%
[3]
  pest or weed control at 250 g/ha: 70%
[4]
  pest or weed control at 250 g/ha: 100%
Avena fatua (AVEFA) [5]
  pest or weed control at 250 g/ha: 40%
Setaria faberi (SETFA) [6]
  pest or weed control at 250 g/ha: 80%
Avena fatua (AVEFA) [7]
  pest or weed control at 250 g/ha: 0%
[8]
  pest or weed control at 250 g/ha: 50%

## CCc1cc(-c2ccc(Cl)c(Cl)c2F)ccc1C1=C(O)[C@@]2(C)CC[C@H](O2)C1=O (racemic) [Compound A-31]
Setaria faberi (SETFA) [1]
  pest or weed control at 250 g/ha: 60%
[2]
  pest or weed control at 250 g/ha: 30%
[3]
  pest or weed control at 250 g/ha: 50%
[4]
  pest or weed control at 250 g/ha: 100%
Avena fatua (AVEFA) [5]
  pest or weed control at 250 g/ha: 30%
Setaria faberi (SETFA) [6]
  pest or weed control at 250 g/ha: 100%
Avena fatua (AVEFA) [7]
  pest or weed control at 250 g/ha: 40%
[8]
  pest or weed control at 250 g/ha: 90%

## CCc1cc(-c2ccc(F)cc2)ccc1C1=C(O)[C@@]2(C)CC[C@H](O2)C1=O [Compound A-18]
Setaria faberi (SETFA) [1]
  pest or weed control at 250 g/ha: 100%
[2]
  pest or weed control at 250 g/ha: 90%
[3]
  pest or weed control at 250 g/ha: 100%
[4]
  pest or weed control at 250 g/ha: 100%
Avena fatua (AVEFA) [5]
  pest or weed control at 250 g/ha: 70%
Setaria faberi (SETFA) [6]
  pest or weed control at 250 g/ha: 100%
Avena fatua (AVEFA) [7]
  pest or weed control at 250 g/ha: 90%
[8]
  pest or weed control at 250 g/ha: 100%

## CCc1cc(-c2ccccc2)ccc1C1=C(O)[C@@]2(C)CC[C@H](O2)C1=O (racemic) [Compound A-4]
Setaria faberi (SETFA) [1]
  pest or weed control at 250 g/ha: 20%
[2]
  pest or weed control at 250 g/ha: 40%
[3]
  pest or weed control at 250 g/ha: 40%
[4]
  pest or weed control at 250 g/ha: 80%
Avena fatua (AVEFA) [5]
  pest or weed control at 250 g/ha: 0%
Setaria faberi (SETFA) [6]
  pest or weed control at 250 g/ha: 60%
Avena fatua (AVEFA) [7]
  pest or weed control at 250 g/ha: 0%
[8]
  pest or weed control at 250 g/ha: 80%

## CCc1cc(-c2ccc(Cl)c(OC)c2)ccc1C1=C(O)[C@@]2(C)CC[C@H](O2)C1=O [Compound A-20]
Setaria faberi (SETFA) [1]
  pest or weed control at 250 g/ha: 80%
[2]
  pest or weed control at 250 g/ha: 70%
[3]
  pest or weed control at 250 g/ha: 70%
[4]
  pest or weed control at 250 g/ha: 100%
Avena fatua (AVEFA) [5]
  pest or weed control at 250 g/ha: 40%
Setaria faberi (SETFA) [6]
  pest or weed control at 250 g/ha: 90%
Avena fatua (AVEFA) [7]
  pest or weed control at 250 g/ha: 70%
[8]
  pest or weed control at 250 g/ha: 90%

## CCc1cc(-c2cc(Cl)cc(Cl)c2)ccc1C1=C(O)[C@@]2(C)CC[C@H](O2)C1=O [Compound A-15]
Setaria faberi (SETFA) [1]
  pest or weed control at 250 g/ha: 40%
[2]
  pest or weed control at 250 g/ha: 0%
[3]
  pest or weed control at 250 g/ha: 30%
[4]
  pest or weed control at 250 g/ha: 100%
Avena fatua (AVEFA) [5]
  pest or weed control at 250 g/ha: 40%
Setaria faberi (SETFA) [6]
  pest or weed control at 250 g/ha: 100%
Avena fatua (AVEFA) [7]
  pest or weed control at 250 g/ha: 80%
[8]
  pest or weed control at 250 g/ha: 100%

## Cc1cc(-c2ccc(Cl)cc2)ccc1C1=C(O)[C@@]2(C)CC[C@H](O2)C1=O (racemic) [Compound A-10]
Setaria faberi (SETFA) [1]
  pest or weed control at 250 g/ha: 0%
[2]
  pest or weed control at 250 g/ha: 0%
[3]
  pest or weed control at 250 g/ha: 30%
[4]
  pest or weed control at 250 g/ha: 100%
Avena fatua (AVEFA) [5]
  pest or weed control at 250 g/ha: 0%
Setaria faberi (SETFA) [6]
  pest or weed control at 250 g/ha: 100%
Avena fatua (AVEFA) [7]
  pest or weed control at 250 g/ha: 50%
[8]
  pest or weed control at 250 g/ha: 90%

## CCc1cc(-c2ccc(C)cc2)cc(CC)c1C1=C(O)[C@@]2(C)CC[C@H](O2)C1=O (racemic) [Compound A-12]
Setaria faberi (SETFA) [1]
  pest or weed control at 250 g/ha: 80%
[2]
  pest or weed control at 250 g/ha: 30%
[3]
  pest or weed control at 250 g/ha: 70%
[4]
  pest or weed control at 250 g/ha: 100%
Avena fatua (AVEFA) [5]
  pest or weed control at 250 g/ha: 20%
Setaria faberi (SETFA) [6]
  pest or weed control at 250 g/ha: 100%
Avena fatua (AVEFA) [7]
  pest or weed control at 250 g/ha: 0%
[8]
  pest or weed control at 250 g/ha: 70%

## CCc1cc(-c2ccc(C)cc2)ccc1C1=C(O)[C@@]2(C)CC[C@H](O2)C1=O (racemic) [Compound A-6]
Setaria faberi (SETFA) [1]
  pest or weed control at 250 g/ha: 0%
[2]
  pest or weed control at 250 g/ha: 0%
[3]
  pest or weed control at 250 g/ha: 0%
[4]
  pest or weed control at 250 g/ha: 80%
Avena fatua (AVEFA) [5]
  pest or weed control at 250 g/ha: 0%
Setaria faberi (SETFA) [6]
  pest or weed control at 250 g/ha: 80%
Avena fatua (AVEFA) [7]
  pest or weed control at 250 g/ha: 30%
[8]
  pest or weed control at 250 g/ha: 70%

## CCOC[C@]12CC[C@H](O1)C(=O)C(c1ccc(-c3ccc(Cl)cc3)cc1CC)=C2O [Compound A-33]
Setaria faberi (SETFA) [1]
  pest or weed control at 250 g/ha: 30%
[2]
  pest or weed control at 250 g/ha: 20%
[3]
  pest or weed control at 250 g/ha: 60%
[4]
  pest or weed control at 250 g/ha: 100%
Avena fatua (AVEFA) [5]
  pest or weed control at 250 g/ha: 40%
Setaria faberi (SETFA) [6]
  pest or weed control at 250 g/ha: 100%
Avena fatua (AVEFA) [7]
  pest or weed control at 250 g/ha: 80%
[8]
  pest or weed control at 250 g/ha: 90%

## CCc1cc(-c2ccc(Cl)c(F)c2)ccc1C1=C(O)[C@@]2(C)CC[C@H](O2)C1=O (racemic) [Compound A-24]
Setaria faberi (SETFA) [1]
  pest or weed control at 250 g/ha: 90%
[2]
  pest or weed control at 250 g/ha: 70%
[3]
  pest or weed control at 250 g/ha: 100%
[4]
  pest or weed control at 250 g/ha: 100%
Avena fatua (AVEFA) [5]
  pest or weed control at 250 g/ha: 60%
Setaria faberi (SETFA) [6]
  pest or weed control at 250 g/ha: 100%
Avena fatua (AVEFA) [7]
  pest or weed control at 250 g/ha: 80%
[8]
  pest or weed control at 250 g/ha: 90%

## CCc1cc(-c2ccc(Cl)c(F)c2Cl)ccc1C1=C(O)[C@@]2(C)CC[C@H](O2)C1=O (racemic) [Compound A-29]
Setaria faberi (SETFA) [1]
  pest or weed control at 250 g/ha: 50%
[2]
  pest or weed control at 250 g/ha: 30%
[3]
  pest or weed control at 250 g/ha: 40%
[4]
  pest or weed control at 250 g/ha: 100%
Avena fatua (AVEFA) [5]
  pest or weed control at 250 g/ha: 50%
Setaria faberi (SETFA) [6]
  pest or weed control at 250 g/ha: 100%
Avena fatua (AVEFA) [7]
  pest or weed control at 250 g/ha: 60%
[8]
  pest or weed control at 250 g/ha: 90%

## CCc1cc(-c2ccc(Cl)c(C(F)(F)F)c2)ccc1C1=C(O)[C@@]2(C)CC[C@H](O2)C1=O [Compound A-22]
Setaria faberi (SETFA) [1]
  pest or weed control at 250 g/ha: 50%
[2]
  pest or weed control at 250 g/ha: 0%
[3]
  pest or weed control at 250 g/ha: 40%
[4]
  pest or weed control at 250 g/ha: 90%
Avena fatua (AVEFA) [5]
  pest or weed control at 250 g/ha: 50%
Setaria faberi (SETFA) [6]
  pest or weed control at 250 g/ha: 100%
Avena fatua (AVEFA) [7]
  pest or weed control at 250 g/ha: 70%
[8]
  pest or weed control at 250 g/ha: 100%

## CCc1cc(-c2ccc(Cl)cc2)ccc1C1=C(OC(C)=O)[C@@H]2CC[C@@](C)(O2)C1=O (racemic) [Compound D-1]
Setaria faberi (SETFA) [1]
  pest or weed control at 250 g/ha: 80%
[2]
  pest or weed control at 250 g/ha: 60%
[3]
  pest or weed control at 250 g/ha: 70%
[4]
  pest or weed control at 250 g/ha: 100%
Avena fatua (AVEFA) [5]
  pest or weed control at 250 g/ha: 40%
Setaria faberi (SETFA) [6]
  pest or weed control at 250 g/ha: 100%
Avena fatua (AVEFA) [7]
  pest or weed control at 250 g/ha: 80%
[8]
  pest or weed control at 250 g/ha: 90%

## CCc1cc(-c2ccc(Cl)c(C)c2)ccc1C1=C(O)[C@@]2(C)CC[C@H](O2)C1=O [Compound A-19]
Setaria faberi (SETFA) [1]
  pest or weed control at 250 g/ha: 0%
[2]
  pest or weed control at 250 g/ha: 0%
[3]
  pest or weed control at 250 g/ha: 80%
[4]
  pest or weed control at 250 g/ha: 90%
Avena fatua (AVEFA) [5]
  pest or weed control at 250 g/ha: 30%
Setaria faberi (SETFA) [6]
  pest or weed control at 250 g/ha: 80%
Avena fatua (AVEFA) [7]
  pest or weed control at 250 g/ha: 60%
[8]
  pest or weed control at 250 g/ha: 90%
